Measured values from patent publication US8735414B2 (priority 2009, dated 2014).

tested on: bicistronic HCV replicon (replicon RNA, GenBank Accession No. AJ242654); assay: HCV Replicon Assay; format: cell-based; details: Hepatitis C virus, 72 h, read-out: Replicon IC50

SMILES	IC50 [nM]
CCc1cc2c(cc1F)c(C#N)c(-c1ccc(NS(=O)(=O)C(C)(C)C)nc1)n2[C@@H](C)C1CC1 [compound 1082, N-(5-{3-cyano-1-[(1S)-1-cyclopropylethyl]-6-ethyl-5-fluoro-1H-indol-2-yl}pyridin-2-yl)-2-methylpropane-2-sulfonamide]	< 500
CNC(=O)c1c(-c2ccc(S(=O)(=O)N[C@@H](C)C(F)(F)F)cn2)n(C2CCCC2)c2cc(C)c(F)cc12 [compound 761, (S)-1-cyclopentyl-5-fluoro-N,6-dimethyl-2-(5-(N-(1,1,1-trifluoropropan-2-yl)sulfamoyl)pyridin-2-yl)-1H-indole-3-carboxamide]	< 500
N#Cc1c(-c2ccc(S(=O)(=O)NC3CC(F)(F)C3)cn2)n(C2CCC2)c2ccc(Cl)cc12 [compound 243, 6-(5-chloro-3-cyano-1-cyclobutyl-1H-indol-2-yl)-N-(3,3-difluorocyclobutyl)pyridine-3-sulfonamide]	500 to 2000
N#Cc1c(-c2ccc(S(=O)(=O)NC(CF)CF)cn2)n(C2CCC2)c2ccc(C(F)F)cc12 [compound 378, 6-[3-cyano-1-cyclobutyl-5-(difluoromethyl)-1H-indol-2-yl]-N-(1,3-difluoropropan-2-yl)pyridine-3-sulfonamide]	< 500
CC(C)(NS(=O)(=O)c1ccc(-c2c(C(=O)O)c3cc(F)c(OC(F)F)cc3n2C2CCCCC2)nc1)C(F)(F)F [compound 928, 1-cyclohexyl-6-(difluoromethoxy)-5-fluoro-2-{5-[(1,1,1-trifluoro-2-methylpropan-2-yl)sulfamoyl]pyridin-2-yl}-1H-indole-3-carboxylic acid]	< 500
Cc1cc2c(cc1F)c(C#N)c(-c1ccc(S(=O)(=O)N[C@@H](C)C(F)(F)F)cn1)n2-c1ncccc1F [compound 814, 6-[3-cyano-5-fluoro-1-(3-fluoropyridin-2-yl)-6-methyl-1H-indol-2-yl]-N-[(2S)-1,1,1-trifluoropropan-2-yl]pyridine-3-sulfonamide]	< 500
Cc1ccc2c(C#N)c(-c3ccc(S(=O)(=O)N[C@@H](C)C4CC4)cn3)n(C(C)C)c2c1 [compound 425, 6-[3-cyano-6-methyl-1-(propan-2-yl)-1H-indol-2-yl]-N-[(1S)-1-cyclopropylethyl]pyridine-3-sulfonamide]	500 to 2000
CCc1cc2c(cc1F)c(C#N)c(-c1ccc(S(=O)(=O)N[C@@H](C)C(F)(F)F)cn1)n2-c1ccccn1 [compound 778, 6-[3-cyano-6-ethyl-5-fluoro-1-(pyridin-2-yl)-1H-indol-2-yl]-N-[(2S)-1,1,1-trifluoropropan-2-yl]pyridine-3-sulfonamide]	< 500
N#Cc1c(-c2ccc(S(=O)(=O)NC(CF)CF)cn2)n(C2CCCC2)c2cc(O)c(F)cc12 [compound 575, 6-(3-cyano-1-cyclopentyl-5-fluoro-6-hydroxy-1H-indol-2-yl)-N-(1,3-difluoropropan-2-yl)pyridine-3-sulfonamide]	< 500
CC(C)(C)NS(=O)(=O)c1ccc(-c2c(C#N)c3cc(F)c(OC(F)F)cc3n2C2CCC2)nc1 [compound 720, N-tert-butyl-6-[3-cyano-1-cyclobutyl-6-(difluoromethoxy)-5-fluoro-1H-indol-2-yl]pyridine-3-sulfonamide]	< 500
NC(=O)c1c(-c2ccc(S(=O)(=O)NC(CF)CF)cn2)n(C2CCC2)c2cc(C3CC3)ccc12 [compound 582, 1-cyclobutyl-6-cyclopropyl-2-{5-[(1,3-difluoropropan-2-yl)sulfamoyl]pyridin-2-yl}-1H-indole-3-carboxamide]	< 500
Cc1cc2c(cc1F)cc(-c1ccc(S(=O)(=O)N[C@@H](C)C(F)(F)F)cn1)n2-c1cccs1 [compound 989, 6-[5-fluoro-6-methyl-1-(thiophen-2-yl)-1H-indol-2-yl]-N-[(2S)-1,1,1-trifluoropropan-2-yl]pyridine-3-sulfonamide]	< 500
C[C@H](NS(=O)(=O)c1ccc(-c2c(C#N)c3cc(F)c(CC(F)F)cc3n2C2CCC2)nc1)C(F)(F)F [compound 697, 6-[3-cyano-1-cyclobutyl-6-(2,2-difluoroethyl)-5-fluoro-1H-indol-2-yl]-N-[(2S)-1,1,1-trifluoropropan-2-yl]pyridine-3-sulfonamide]	< 500
COC(=O)c1c(-c2ccc(S(=O)(=O)NC(C)(C)C(F)(F)F)cn2)n(C2CCCC2)c2cc(C)c(F)cc12 [compound 754, methyl 1-cyclopentyl-5-fluoro-6-methyl-2-{5-[(1,1,1-trifluoro-2-methylpropan-2-yl)sulfamoyl]pyridin-2-yl}-1H-indole-3-carboxylate]	< 500
C[C@@H](C1CC1)n1c(-c2ccc(NS(=O)(=O)C(C)(C)C)nc2)c(C(=O)O)c2cc(F)c(OC(F)F)cc21 [compound 1080, 2-{6-[(tert-butylsulfonyl)amino]pyridin-3-yl}-1-[(1S)-1-cyclopropylethyl]-6-(difluoromethoxy)-5-fluoro-1H-indole-3-carboxylic acid]	500 to 2000
CC(C)NS(=O)(=O)c1ccc(-c2c(C#N)c3ccc(C4CC4)cc3n2C2CC2)nc1 [compound 109, 6-(3-cyano-1,6-dicyclopropyl-1H-indol-2-yl)-N-(propan-2-yl)pyridine-3-sulfonamide]	< 500

SMILES	IC50 [nM]
Cc1cc2c(cc1F)c(C#N)c(-c1ccc(S(=O)(=O)N[C@H](C)C(F)(F)F)cn1)n2C1CCCC1 [compound 409, 6-(3-cyano-1-cyclopentyl-5-fluoro-6-methyl-1H-indol-2-yl)-N-[(2R)-1,1,1-trifluoropropan-2-yl]pyridine-3-sulfonamide]	< 500
COC(=O)c1c(-c2ccc(S(=O)(=O)NC(C)(C)C)cn2)n(C2CCC2)c2cc(C)c(F)cc12 [compound 770, methyl 2-[5-(tert-butylsulfamoyl)pyridin-2-yl]-1-cyclobutyl-5-fluoro-6-methyl-1H-indole-3-carboxylate]	< 500
N#Cc1c(-c2ncc(S(=O)(=O)NC(CF)CF)cn2)n(C2CCC2)c2cc(CC(F)F)ccc12 [compound 591, 2-[3-cyano-1-cyclobutyl-6-(2,2-difluoroethyl)-1H-indol-2-yl]-N-(1,3-difluoropropan-2-yl)pyrimidine-5-sulfonamide]	< 500
CC(C)(C)NS(=O)(=O)c1ccc(-c2c(C#N)c3cc(F)ccc3n2-c2ncccn2)nc1 [compound 823, N-tert-butyl-6-[3-cyano-5-fluoro-1-(pyrimidin-2-yl)-1H-indol-2-yl]pyridine-3-sulfonamide]	500 to 2000
Cc1cc2c(cc1F)c(C(=O)O)c(-c1ccc(S(=O)(=O)N[C@@H](C)C(F)(F)F)cn1)n2C1CCCC1 [compound 758, (S)-1-cyclopentyl-5-fluoro-6-methyl-2-(5-(N-(1,1,1-trifluoropropan-2-yl)sulfamoyl)pyridin-2-yl)-1H-indole-3-carboxylic acid]	< 500
Cc1nc(NS(=O)(=O)C(C)(C)C)ccc1-c1c(C(=O)O)c2cc(F)c(OC(F)F)cc2n1[C@H](C)C1CC1 [compound 1094, 2-{6-[(tert-butylsulfonyl)amino]-2-methylpyridin-3-yl}-1-[(1R)-1-cyclopropylethyl]-6-(difluoromethoxy)-5-fluoro-1H-indole-3-carboxylic acid]	< 500
Cc1cc2c(cc1F)c(C#N)c(-c1ccc(S(=O)(=O)NC3CC3)cn1)n2C1CCC1 [compound 652, 6-(3-cyano-1-cyclobutyl-5-fluoro-6-methyl-1H-indol-2-yl)-N-cyclopropylpyridine-3-sulfonamide]	< 500
Cc1cc2c(cc1F)c(C#N)c(-c1ccc(S(=O)(=O)NC3(C(F)(F)F)CC3)cn1)n2C1CCCC1 [compound 644, 6-(3-cyano-1-cyclopentyl-5-fluoro-6-methyl-1H-indol-2-yl)-N-[1-(trifluoromethyl)cyclopropyl]pyridine-3-sulfonamide]	< 500
Cc1ccc2c(C#N)c(-c3ccc(S(=O)(=O)NC(CF)CF)cn3)n(C3CCC3)c2c1 [compound 82, 6-(3-cyano-1-cyclobutyl-6-methyl-1H-indol-2-yl)-N-(1,3-difluoropropan-2-yl)pyridine-3-sulfonamide]	< 500
C[C@@H](NS(=O)(=O)c1ccc(-c2c(C#N)c3ccc(F)cc3n2C2CCCCC2)nc1)C(F)(F)F [compound 252, 6-(3-cyano-1-cyclohexyl-6-fluoro-1H-indol-2-yl)-N-[(2R)-1,1,1-trifluoropropan-2-yl]pyridine-3-sulfonamide]	< 500
C[C@H](NS(=O)(=O)c1ccc(-c2c(C#N)c3ccc(Cl)cc3n2C2CCC2)nc1)C1CC1 [compound 154, 6-(6-chloro-3-cyano-1-cyclobutyl-1H-indol-2-yl)-N-[(1S)-1-cyclopropylethyl]pyridine-3-sulfonamide]	< 500
Cc1cc2c(cc1F)c(C#N)c(-c1cc(C)c(S(=O)(=O)N[C@@H](C)C(F)(F)F)cn1)n2-c1ccccn1 [compound 854, 6-[3-cyano-5-fluoro-6-methyl-1-(pyridin-2-yl)-1H-indol-2-yl]-4-methyl-N-[(2S)-1,1,1-trifluoropropan-2-yl]pyridine-3-sulfonamide]	< 500
CCc1cc2c(cc1F)c(C#N)c(-c1ccc(S(=O)(=O)N[C@@H](C)C(F)(F)F)cn1)n2-c1ccc(C)cn1 [compound 931, 6-[3-cyano-6-ethyl-5-fluoro-1-(5-methylpyridin-2-yl)-1H-indol-2-yl]-N-[(2S)-1,1,1-trifluoropropan-2-yl]pyridine-3-sulfonamide]	< 500
CC(O)c1cc2c(cc1F)c(C#N)c(-c1ccc(S(=O)(=O)N[C@@H](C)C(F)(F)F)cn1)n2-c1ncccn1 (stereo partly drawn) [compound 911, 6-[3-cyano-5-fluoro-6-(1-hydroxyethyl)-1-(pyrimidin-2-yl)-1H-indol-2-yl]-N-[(2S)-1,1,1-trifluoropropan-2-yl]pyridine-3-sulfonamide]	< 500
N#Cc1c(-c2ccc(S(=O)(=O)NC(CF)CF)cn2)n(C2CCC2)c2cc(CF)ccc12 [compound 318, 6-[3-cyano-1-cyclobutyl-6-(fluoromethyl)-1H-indol-2-yl]-N-(1,3-difluoropropan-2-yl)pyridine-3-sulfonamide]	< 500
N#Cc1c(-c2ccc(S(=O)(=O)NC(CF)CF)cn2)n(C2CCCC2)c2c(Cl)cccc12 [compound 88, 6-(7-chloro-3-cyano-1-cyclopentyl-1H-indol-2-yl)-N-(1,3-difluoropropan-2-yl)pyridine-3-sulfonamide]	< 500
